Legend:
human γ-tubulin [1] = molecular target: T1, human γ-tubulin (Homo sapiens, UniProt P23258); assay: GTP binding to recombinant γ-tubulin (UV crosslinking); conditions: 70 nM γ-tubulin, α-[32P]-GTP
T1 construct: myc (C); 6His (C); made in house; host or cells: Sf21 insect cells (baculovirus)
Procedure: Supplementary Figure 2. Binding of GTP and GCP4 to recombinant human γ-tubulin
(a) GTP binding to γ-tubulin. 70 nM of γ-tubulin was mixed with indicated concentrations of α-[32P]-GTP, and cross-linked by UV irradiation. After separation of crosslinked γ-tubulin and unbound α-[32P]-GTP, radioactivity was detected with a phosphorimager. Band intensities were quantified with ImageJ. The Kd (121.1 nM) was calculated using GraphPad Prizm software. (b) Purified human γ-tubulin and GCP4 interaction was detected by gel filtration and SDS-PAGE. Equal volumes of γ-tubulin (1.5 µM) and GCP4 (4 µM), γ-tubulin (1.5 µM) and buffer, or GCP4 (4 µM) and buffer were mixed and incubated for 30 min at 20 °C. Proteins were separated by size exclusion column Superdex 200 10/300 GL pre-equilibrated with gel filtration buffer (50 mM MES pH6.6, 500 mM KCl, 5 mM MgSO4, 1 mM EGTA, 1 mM DTT, 10 µM GTP).
γ-Tubulin alone and GCP4 alone were eluted at retention times of 27 min and 24 min, respectively. The […]
GCP4 and γ-tubulin in these fractions were confirmed by SDS-PAGE and silver staining.
(1 picture or pasted object on this page, not shown here)

α/β-tubulin = molecular target: T2, α/β-tubulin (Sus scrofa, UniProt P02550+P02554); assay: Tryptophan-based drug-binding assay, α/β-tubulin; parameters: species or system porcine; conditions: tryptophan fluorescence decrease; 1 μM protein; mean±s.d., three independent experiments
T2 construct: α/β-Tubulin was purified from porcine brain; from tissue; host or cells: porcine brain
Procedure: γ-TuSC was purified as described. Briefly, γ-TuSC was expressed in HighFive cells and purified by sequential steps of Ni-NTA (Macherei-Nagel) purification, MonoQ column purification (GE Healthcare) and size exclusion (Superdex 200 column, GE Healthcare)[14]. α/β-Tubulin was purified from porcine brain through four cycles of polymerization and depolymerization using 1 M PIPES buffer (1 M PIPES-KOH, 1 mM EGTA, 1 mM MgCl2, pH 6.8) for effective removal of MT-associated proteins.
(§1) Gel filtration buffer for γ-tubulin purification (50 mM MES pH 6.6, 500 mM KCl, 5 mM MgCl2, 1 mM EGTA and 1 mM DTT) supplemented with 10% of glycerol was used as an assay buffer. γ-tubulin and α/β-tubulin were diluted in this assay buffer to reach a final protein concentration of 1 μM. A final concentration of 10 μM or 1 mM GTP was added to the samples. Proteins were incubated for 30 min with compounds (final DMSO concentration was 1%; 2% for AG1 and gatastatin). […] Dissociation constants were calculated from fitting curves of decreasing fluorescence (ΔFL) using the GraphPad Prizm software.

human γ-tubulin [2] = molecular target: T1, human γ-tubulin; assay: Tryptophan-based drug-binding assay, γ-tubulin; conditions: for Ratio of Kd[α/β-tubulin]/Kd[γ-tubulin]: selectivity for γ-tubulin over α/β-tubulin; for Kd: tryptophan fluorescence decrease, 1 μM protein, mean±s.d., three independent experiments
Procedure: In brief, 0.7 × 10^6 cells ml^−1 were infected with the γ-tubulin baculovirus. After 48 h, cells were collected by centrifugation at […] for 10 min and flash-frozen in liquid nitrogen and stored at −80 °C. Purification was carried out as described with slight modifications. […] Imidazole (final 10 mM) was added and the lysate was centrifuged again at 192,800g for 30 min at 4 °C. […] Ni-NTA Agarose was then washed twice with wash buffer 1 (lysis buffer containing 25 mM imidazole) and wash buffer 2 (50 mM MES pH 6.6, 500 mM KCl, 5 mM MgCl2, 10% glycerol, 10 μM GTP and 1 mM DTT) containing 25 mM imidazole. γ-Tubulin was eluted with wash buffer 2 containing 200 mM imidazole.
Monomeric γ-tubulin was prepared using a size exclusion column HiLoad 16/60 Superdex 200 pre-equilibrated with gel filtration buffer (50 mM MES pH 6.6, 500 mM KCl, 5 mM MgCl2, 1 mM EGTA, 10 μM GTP and 1 mM DTT). The peak fractions representing monomeric γ-tubulin were identified by A280 and confirmed using SDS–PAGE. Protein was concentrated using a Vivaspin concentrator (Sartorius) and supplemented with 10% glycerol, following snap-freezing in liquid nitrogen and storage at −80 °C.
as §1

[3] = tested on: HeLa cells expressing EB3-EGFP (interphase); assay: EB3-EGFP signal tracking, interphase cells; format: cell-based, human; conditions: 15 min; for Track length / Track lifetime / Velocity: interphase HeLa EB3-EGFP, mean±s.d.; for Track numbers: interphase, from a 144-μm^2 area inside the cell
Procedure: A HeLa ‘Kyoto' cell line stably expressing EB3-EGFP (a kind gift from Dr J. Ellenberg) was maintained in DMEM+GlutaMAX (Gibco) supplemented with 10% FBS, 2 mM L-glutamine, 100 U ml^−1 penicillin, 100 μg ml^−1 streptomycin, 1 mM sodium pyruvate and 0.5 mg ml^−1 G418. Cells were seeded into eight-well Lab-Tek chambers (Nunc, Rochester, NY) for 24-h prior imaging. For imaging, the medium was exchanged to Live Cell Imaging Solution (Molecular Probes Life Technologies) supplemented as described above and containing various concentrations of AG1 or gatastatin. Interphase cells were incubated with drugs for 15 min and mitotic cells were treated as described in Fig. 4c. Then, EB3 tracks were observed under a PerkinElmer UltraVIEW ERS Spinning Disk microscope (Software: UltraVIEW ERS Imaging Suite) equipped with a Plan-APOCHROMAT × 100/1.4 Oil DIC objective, a Confocal Scanner Unit (Yokogawa CSU 22), a Hamamatsu EM CCD camera (C9100-50) and a 488-nm Argon laser at 37 °C, and time-lapse sequences were performed for 60 s with a 400-ms interval. Automatic analysis of EB3-EGFP signal tracks was performed with ImageJ (http://imagej.nih.gov/ij/) and Matlab (Mathworks) as described.

HeLa cells = assay: Analysis of interphase MT network; format: cell-based, human; conditions: 30 μM, 2.5 h
Procedure: HeLa cells were cultured in DMEM containing 10% FBS in a humidified atmosphere containing 5% CO2. After treatment with each compound for 2.5 h (interphase MT network) or 5 h (mitotic spindle), the cells were immediately fixed with cold MeOH (−20 °C). After blocking with PBS containing 0.5% bovine serum albumin, cells were incubated with anti-α-tubulin antibodies (1:500 dilution, Santa Cruz, Cat# sc-32293) to observe interphase cells, or with anti-BubR1 (1:250 dilution, BD Bioscience, Cat# 612502) and anti-α-tubulin (1:250 dilution, MBL, Cat# PM054) antibodies to observe mitotic spindle. After staining with Alexa^488-conjugated anti-mouse IgG (1:2,000 dilution, Invitrogen, Cat#A11001) and Alexa568-conjugated anti-rabbit IgG (1:2000 dilution, Invitrogen, Cat#A11011), cells were washed four times with PBS and mounted with PBS containing 0.1 μg ml^−1 DAPI. MTs and BubR1 signals were observed under a Leica LAS AF 6000 fluorescence microscope (Leica Microsystems) or an LSM 700 laser-scanning confocal microscope (Zeiss).

[4] = tested on: DMSO-stimulated, γ-tubulin-independent aster formation; assay: DMSO-stimulated aster formation in M-phase Xenopus egg extracts; format: biochemical; conditions: M-phase-arrested Xenopus egg extracts, 5% DMSO, 20 min at 20 °C
Procedure: (§2) Cytostatic factor (CSF)-arrested M phase Xenopus egg extracts (CSF extracts) were prepared. Briefly, unfertilized eggs were crushed by 10,700g centrifugation for 20 min. M phase extracts were mixed with 0.5 μM Cy3-labelled α/β-tubulin and various concentrations of compounds. After incubation for 30 min on ice, 15 μM RanQ69L, 200 sperm nuclei per μl or 5% DMSO were added and incubated for 30 min on ice. After incubation for 20 min at 20 °C (for the samples with sperm nuclei, the incubation time was 30 min), 1.5 μl sample was fixed with 1.5 μl fix solution (0.3 volume of 37% formaldehyde, 0.6 volume of 80% glycerol and 0.1 vol of 10 × MMR solution (50 mM HEPES, pH 7.8, 1 M NaCl, 20 mM KCl, 10 mM MgCl2, 20 mM CaCl2 and 1 mM EDTA)), followed by the squash fix.
(§3) Images were acquired using a microscope (Axiovert 200 M; Carl Zeiss Inc.) equipped with a plan-Apochromat × 63 NA 1.3 oil objective lens (Carl Zeiss Inc.), a Cy3 emission filter and a Cascade:1 K (Photometrics Inc.) camera, and the AxioVision software (Carl Zeiss Inc.). The aster size and fluorescence intensity were quantified using a macro written in MATLAB[41].

human γ-tubulin [5] = molecular target: T1, human γ-tubulin; assay: Inhibition of GTP binding of γ-tubulin (α-[32P]-GTP crosslinking assay); conditions: 60 μM compound; 70 nM γ-tubulin, 100 nM α-[32P]-GTP; mean±s.d.
Procedure: For analysis of the effect of drugs on GTP binding of γ-tubulin, 70 nM of purified human γ-tubulin in GTP-binding buffer (50 mM MES, 5 mM MgCl2, 1 mM EGTA, pH 6.6) was incubated with or without compounds for 15 min at 20 °C. A final concentration of 100 nM of α-[^32P]-GTP was added and incubated at 20 °C for 30 min. After incubation, bound α-[^32P]-GTP was crosslinked to γ-tubulin for 60 s by illumination with a ultraviolet lamp using CL-1000 Ultraviolet Crosslinker. Protein with the crosslinked GTP was separated from unbound nucleotide by TCA precipitation and SDS–PAGE, and ^32P labelling was measured using a Typhoon FLA-7000 (General Electronic Company). Band intensities were quantified with the ImageJ software.

[6] = tested on: γ-tubulin-dependent, RanQ69L-stimulated aster formation; assay: RanQ69L-stimulated aster formation in M-phase Xenopus egg extracts; format: biochemical
Procedure: as §2, §3

T2 sequence (P02554 whole entry): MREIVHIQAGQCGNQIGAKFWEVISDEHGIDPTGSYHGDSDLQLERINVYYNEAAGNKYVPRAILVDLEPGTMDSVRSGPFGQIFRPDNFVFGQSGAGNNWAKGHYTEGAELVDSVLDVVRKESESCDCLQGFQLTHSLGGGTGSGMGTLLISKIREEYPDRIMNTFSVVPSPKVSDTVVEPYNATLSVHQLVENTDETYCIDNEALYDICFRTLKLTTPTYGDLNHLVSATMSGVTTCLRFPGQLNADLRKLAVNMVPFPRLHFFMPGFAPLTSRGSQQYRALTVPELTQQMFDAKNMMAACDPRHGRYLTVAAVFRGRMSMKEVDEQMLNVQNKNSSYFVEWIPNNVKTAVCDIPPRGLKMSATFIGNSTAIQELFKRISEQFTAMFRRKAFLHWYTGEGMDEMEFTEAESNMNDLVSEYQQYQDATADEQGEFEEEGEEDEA
T2 sequence (P02550 whole entry): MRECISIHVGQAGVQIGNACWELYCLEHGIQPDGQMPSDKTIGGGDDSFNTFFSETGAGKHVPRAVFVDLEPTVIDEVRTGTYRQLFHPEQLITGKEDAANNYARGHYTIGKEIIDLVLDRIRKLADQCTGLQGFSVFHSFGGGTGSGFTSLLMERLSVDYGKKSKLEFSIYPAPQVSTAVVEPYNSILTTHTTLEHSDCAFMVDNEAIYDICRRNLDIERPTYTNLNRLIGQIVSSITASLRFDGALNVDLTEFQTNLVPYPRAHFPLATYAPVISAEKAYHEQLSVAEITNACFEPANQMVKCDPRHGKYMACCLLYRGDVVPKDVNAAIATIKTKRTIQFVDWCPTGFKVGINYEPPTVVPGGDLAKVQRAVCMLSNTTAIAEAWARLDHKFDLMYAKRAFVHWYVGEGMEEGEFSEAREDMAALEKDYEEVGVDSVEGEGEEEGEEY
T1 sequence (P23258 whole entry): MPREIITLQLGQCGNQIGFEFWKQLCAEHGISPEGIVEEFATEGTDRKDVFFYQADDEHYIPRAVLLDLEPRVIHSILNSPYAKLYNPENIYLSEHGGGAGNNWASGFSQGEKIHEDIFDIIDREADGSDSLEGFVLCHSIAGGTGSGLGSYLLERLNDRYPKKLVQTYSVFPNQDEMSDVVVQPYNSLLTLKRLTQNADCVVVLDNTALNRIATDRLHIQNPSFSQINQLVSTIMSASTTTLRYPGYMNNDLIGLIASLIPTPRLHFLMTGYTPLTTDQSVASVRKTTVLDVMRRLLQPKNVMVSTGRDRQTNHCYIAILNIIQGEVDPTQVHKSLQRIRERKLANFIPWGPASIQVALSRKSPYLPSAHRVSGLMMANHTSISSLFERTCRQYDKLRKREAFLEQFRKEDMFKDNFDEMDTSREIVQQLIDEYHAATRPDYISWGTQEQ

Structure (SMILES): Nc1nc2c(ncn2[C@@H]2O[C@H](COP(=O)(O)OP(=O)(O)OP(=O)(O)O)[C@@H](O)[C@H]2O)c(=O)[nH]1 [GTP]
- Kd (human γ-tubulin [1]): 0.121 µM

Structure (SMILES): COC(=O)Nc1nc2ccc(C(=O)c3cccs3)cc2[nH]1 [Nocodazole]
- Kd (α/β-tubulin): 1.8 ± 0.6 µM
- Ratio of Kd[α/β-tubulin]/Kd[γ-tubulin] (human γ-tubulin [2]): 0.03
- Kd (human γ-tubulin [2]): 54.9 ± 19 µM

Structure (SMILES): CC(C)(C)c1[nH]cnc1/C=c1\[nH]c(=O)/c(=C/c2ccccc2)[nH]c1=O [Plinabulin]
- Kd (α/β-tubulin): 0.5 ± 0.1 µM
- Ratio of Kd[α/β-tubulin]/Kd[γ-tubulin] (human γ-tubulin [2]): 0.01
- Ratio of Kd[α/β-tubulin]/Kd[γ-tubulin] (human γ-tubulin [2]; listed as plinabulin): < 0.05
- Kd (human γ-tubulin [2]): 83.3 ± 18.5 µM

Structure (SMILES): COc1cc2occ(-c3cc(OC)c4c(c3OC)OCO4)c(=O)c2cc1OC [AG1, glaziovianin A, reference compound]
- Track length ([3]; 1 μM): 0.73±0.09 μm
- Track lifetime ([3]; 1 μM): 3.30 ± 0.57 s
- Velocity ([3]; 1 μM): 9.59±1.01 μm min^−1
- Track numbers ([3]; 1 μM): 106±30
- Track length ([3]; 3 μM): 0.43±0.07 μm
- Track lifetime ([3]; 3 μM): 2.20 ± 0.67 s
- Velocity ([3]; 3 μM): 7.33±1.23 μm min^−1
- Track numbers ([3]; 3 μM): 110±42
- Effect on interphase MT network (HeLa cells): caused partial depolymerization of interphase MT network
- Kd (α/β-tubulin): 51.9 ± 36.4 µM
- IC50 [4]: 1.37 µM
- Ratio of Kd[α/β-tubulin]/Kd[γ-tubulin] (human γ-tubulin [2]): 0.61
- Kd (human γ-tubulin [2]): 85.3 ± 22.8 µM
- GTP binding (control %) (human γ-tubulin [5]): 93.7±11.7%
- IC50 ([6]; M-phase-arrested Xenopus egg extracts, 15 μM RanQ69L, 20 min at 20 °C): 0.44 µM
- IC50[DMSO-aster]/IC50[RanQ69L-aster] ([6]; ratio of IC50 values): 3.14

Structure (SMILES): COc1ccc(/C=c2\[nH]c(=O)/c(=C/c3cccc(C(=O)c4ccccc4)c3)[nH]c2=O)cc1 [KPU-406]
- Kd (α/β-tubulin): 26.3 ± 2 µM
- Ratio of Kd[α/β-tubulin]/Kd[γ-tubulin] (human γ-tubulin [2]): 0.57
- Kd (human γ-tubulin [2]): 46.1 ± 27.6 µM
